Columns and labels:
[1] = tested on: NRK49F rat kidney interstitial fibroblast cell lines; assay: PDGFB-induced myofibroblast proliferation (MTT); format: cell-based; details: 10 ng/mL PDGFB, 24 hours, different concentrations of agonist
[2] = tested on: Streptozotocin induced type 1 diabetic rats; assay: Diabetic rat kidney: fibronectin staining; format: in vivo; details: fluvoxamine 20 mg/bwkg/day for 2 weeks from the 5th week of diabetes
[3] = tested on: mice with unilateral ureter obstruction (UUO); assay: Mice model of unilateral ureteral obstruction (UUO): Masson's trichrome, tubulointerstitial fibrosis; format: in vivo; details: fluvoxamine 20 mg/bwkg/day for one week, 7 days after UUO
[4] = tested on: mice with unilateral ureter obstruction (UUO); assay: Mice model of UUO: αSMA protein in kidney, western blot; format: in vivo; details: one week fluvoxamine treatment 20 mg/bwkg/day
[5] = tested on: rat model of bleomycin-induced lung fibrosis; assay: Rat model of bleomycin induced pulmonary fibrosis: Masson trichrome staining of lung; format: in vivo; details: fluvoxamine 20 mg/bwkg/day per os
Description: Masson trichrome staining of tissue sections was performed Bars represent Mean±SEM, n=6/group). Specifically:
For the induction of pulmonary fibrosis male Wistar rats were anesthetized. Bleomycin (5 mg/bwkg in a 300 μl solution of isotonic saline) or 300 μl isotonic saline was administered into the trachea using a 30G needle.
Animals were randomly divided into 4 groups of 6 rats each as follows (i)—control group was sham operated, received isotonic saline per os daily for 3 weeks, (ii) vehicle treated group: received isotonic saline per os daily for 3 weeks after the induction of lung fibrosis, (iii) fluvoxamine treated group: received fluvoxamine (20 mg/bwkg/day per os for 3 weeks after the induction of lung fibrosis), (iv) fluvoxamine+NE100 treated group: received fluvoxamine (20 mg/bwkg/day; per os) and 1 mg/bwkg/day NE100 (i.p. for 3 weeks after the induction of lung fibrosis. […]
The stained sections were viewed and photographed with Pannoramic 250 Flash and Pannoramic Viewer 1.15.2 (3D HISTECH Ltd. Budapest, Hungary) Adobe Photoshop 13.0 and Scion Image for Windows software were used for the analysis. […] Finally these ratios were statistically analyzed in all of the treatment groups.

NRK49F myofibroblasts = details: all applied concentrations, even the smallest 1 μM
Description: In 6-well plates of NRK49F myofibroblasts (6×10^6 cells/well) TGF-β (1 nM) induced production of fibrillar components of the extracellular matrix was measured by Sirius Red staining. To investigate the effect of S1R agonist compounds a group of cells was treated for 48 hours with the various S1R agonists. Solvent treated cells served as controls. (Bars represent mean±SEM)
To investigate the deposition of fibrillar collagen Sirius Red staining was performed. 48 hours after the treatment with TGF-β and said compounds the NRK-49F cells were incubated for 10 minutes with Kahle fixative solution. 0.1% Sirius Red (Direct Red 80, Sigma-Aldrich) in 1.2% picric acid was added for each well and plates were incubated for 30 minutes at RT. The unconnected dye molecules were washed with distilled water. The bound Sirius Red dye was eluated with 0.1 M NaOH solution, absorbance was recorded at 540 nm in a Hidex Chameleon Microplate Reader (Triathler, Plate Chameleion, 300SL Lablogic Systems, Inc., Brandon, Fla., USA) used MikroWin program. Vehicle treated cells served as controls.

COCCCC/C(=N\OCCN)c1ccc(C(F)(F)F)cc1 [fluvoxamine, 2-{[(E)-{5-Methoxy-1-[4-(trifluoromethyl)phenyl]pentylidene}amino]oxy}ethanamine]
PDGF-induced myofibroblast proliferation [1]: significantly decreased PDGF-induced myofibroblast proliferation
fibrotic lesion (fibronectin staining) versus diabetic rats [2]: smaller
tubulointerstitial fibrosis after UUO (Masson's trichrome) [3]: decreased tubulointerstitial fibrosis
UUO-induced αSMA production in kidney [4]: successfully decreased UUO-induced αSMA production
fibrotic lesions of the lung after bleomycin (Masson trichrome) [5]: prevented almost totally the fibrotic effect of bleomycin
TGFβ-induced ECM production (Sirius Red) (NRK49F myofibroblasts): significantly inhibited TGFβ-induced ECM production
